Data published in ChEMBL document CHEMBL5214992, “Potent Uncompetitive Inhibitors of Nicotinamide N-Methyltransferase (NNMT) as In Vivo Chemical Probes” (J Med Chem, 2022).
Values belong to the molecule of their own block, whether it stands above or below them.

Tests used:
[1] = molecular target: T1, Nicotinamide N-methyltransferase (Homo sapiens, UniProt P40261); experiment: Inhibition of human NNMT in human K562 cells measured after 24 hrs by quantitative mass spectrometry; format: cell-based
T1 sequence (P40261 whole entry): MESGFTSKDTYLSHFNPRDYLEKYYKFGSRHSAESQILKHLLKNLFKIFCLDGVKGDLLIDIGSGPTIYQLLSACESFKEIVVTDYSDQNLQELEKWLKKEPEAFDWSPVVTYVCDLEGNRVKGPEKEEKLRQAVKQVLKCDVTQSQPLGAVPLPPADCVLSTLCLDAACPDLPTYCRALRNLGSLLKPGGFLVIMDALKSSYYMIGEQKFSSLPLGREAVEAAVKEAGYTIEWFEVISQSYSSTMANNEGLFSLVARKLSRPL

[2] = Microsomal stability in human liver microsomes assessed as compound remaining after 60 mins by LC-MS/MS analysis; format: ADME, Microsome; conditions: for remaining at 1 h: liver microsomes, read-out: Stability
[3] = Microsomal stability in mouse liver microsomes assessed as compound remaining after 60 mins by LC-MS/MS analysis; format: ADME, Microsome; conditions: for remaining at 1 h: liver microsomes, read-out: Stability; for Stability: microsomes, 1 h
[4] = Half life in C57BL6/N mouse at 50 mg/kg, po measured upto 24 hrs by LC-MS/MS analysis; format: ADME, organism-based; conditions: in vivo
[5] = Half life in C57BL6/N mouse at 10 mg/kg, po measured upto 24 hrs by LC-MS/MS analysis; format: ADME, organism-based; conditions: in vivo
[6] = Tmax in C57BL6/N mouse at 50 mg/kg, po measured upto 24 hrs by LC-MS/MS analysis; format: ADME, organism-based; conditions: in vivo
[7] = Cmax in C57BL6/N mouse at 50 mg/kg, po measured upto 24 hrs by LC-MS/MS analysis; format: ADME, organism-based; set-up: dose 50 mg/kg, time < 24 hrs, route po; conditions: in vivo
[8] = AUClast in C57BL6/N mouse at 50 mg/kg, po measured upto 24 hrs by LC-MS/MS analysis; format: ADME, organism-based; set-up: time < 24 hrs, dose 50 mg/kg, route po; conditions: in vivo; for AUC(0-t) at 24 h: C57BL6/N
[9] = Clearance in C57BL6/N mouse at 1 mg/kg, iv measured upto 24 hrs by LC-MS/MS analysis; format: ADME, organism-based; conditions: in vivo
[10] = molecular target: T1, Nicotinamide N-methyltransferase
Description: Inhibition of human NNMT measured after 20 mins by luminescence based methyltransferase assay

[11] = Oral bioavailability in C57BL6/N mouse at 50 mg/kg measured upto 24 hrs by LC-MS/MS analysis; format: ADME, organism-based; conditions: in vivo; for bioavailability: C57BL6/N
[12] = molecular target: CYP450 (Homo sapiens, UniProt P04798+P05177+P05181+P08684+P10632+P10635+P11509+P11712+P13584+P20813+P20815+P20853+P24462+P24903+P33260+P33261+P51589+P78329+P98187+Q02928+Q08477+Q16678+Q16696+Q5TCH4+Q6VVX0+Q7Z449+Q8TAV3+Q96SQ9+Q9HB55); experiment: Inhibition of CYP450 (unknown origin); format: ADME, protein assay
[13] = Aqueous solubility of compound at pH 7.4; format: physicochemical; conditions: aqueous medium
[14] = Volume of distribution at steady state in C57BL6/N mouse; format: ADME; conditions: in vivo, read-out: Vdss
[15] = molecular target: hERG (Homo sapiens, UniProt Q12809); experiment: Inhibition of hERG; format: toxicity
[16] = Plasma protein binding in human; format: ADME, cell-free; conditions: read-out: PPB
[17] = Plasma protein binding in mouse; format: ADME, cell-free; conditions: read-out: PPB
[18] = Toxicity in C57BL6/N mouse assessed as adverse effect at 50 to 100 mg/kg, po qd measured after 2 weeks; format: organism-based; conditions: in vivo, 336 h, dose 50-100 mg/kg
[19] = molecular target: P-gp (Homo sapiens, UniProt P08183); experiment: Substrate activity at P-gp (unknown origin) assessed as efflux ratio; conditions: not told
[20] = Mutagenicity in Salmonella typhimurium by Ames test; format: toxicity; conditions: salmonella enterica subsp. enterica serovar typhimurium
[21] = Dissociation constant, pKa of the compound; format: physicochemical
[22] = substrate: C[C@@H]1Cc2cc(C(N)=O)cnc2N1; conditions: Homo sapiens
Description: Uncompetitive inhibition of human NNMT assessed as Km of nicotinamide

[23] = substrate: C[C@@H]1Cc2cc(C(N)=O)cnc2N1; conditions: Homo sapiens; remark: listed apart in the source
Description: Uncompetitive inhibition of human NNMT assessed as Km of SAM

hERG, sequence (Q12809 whole entry): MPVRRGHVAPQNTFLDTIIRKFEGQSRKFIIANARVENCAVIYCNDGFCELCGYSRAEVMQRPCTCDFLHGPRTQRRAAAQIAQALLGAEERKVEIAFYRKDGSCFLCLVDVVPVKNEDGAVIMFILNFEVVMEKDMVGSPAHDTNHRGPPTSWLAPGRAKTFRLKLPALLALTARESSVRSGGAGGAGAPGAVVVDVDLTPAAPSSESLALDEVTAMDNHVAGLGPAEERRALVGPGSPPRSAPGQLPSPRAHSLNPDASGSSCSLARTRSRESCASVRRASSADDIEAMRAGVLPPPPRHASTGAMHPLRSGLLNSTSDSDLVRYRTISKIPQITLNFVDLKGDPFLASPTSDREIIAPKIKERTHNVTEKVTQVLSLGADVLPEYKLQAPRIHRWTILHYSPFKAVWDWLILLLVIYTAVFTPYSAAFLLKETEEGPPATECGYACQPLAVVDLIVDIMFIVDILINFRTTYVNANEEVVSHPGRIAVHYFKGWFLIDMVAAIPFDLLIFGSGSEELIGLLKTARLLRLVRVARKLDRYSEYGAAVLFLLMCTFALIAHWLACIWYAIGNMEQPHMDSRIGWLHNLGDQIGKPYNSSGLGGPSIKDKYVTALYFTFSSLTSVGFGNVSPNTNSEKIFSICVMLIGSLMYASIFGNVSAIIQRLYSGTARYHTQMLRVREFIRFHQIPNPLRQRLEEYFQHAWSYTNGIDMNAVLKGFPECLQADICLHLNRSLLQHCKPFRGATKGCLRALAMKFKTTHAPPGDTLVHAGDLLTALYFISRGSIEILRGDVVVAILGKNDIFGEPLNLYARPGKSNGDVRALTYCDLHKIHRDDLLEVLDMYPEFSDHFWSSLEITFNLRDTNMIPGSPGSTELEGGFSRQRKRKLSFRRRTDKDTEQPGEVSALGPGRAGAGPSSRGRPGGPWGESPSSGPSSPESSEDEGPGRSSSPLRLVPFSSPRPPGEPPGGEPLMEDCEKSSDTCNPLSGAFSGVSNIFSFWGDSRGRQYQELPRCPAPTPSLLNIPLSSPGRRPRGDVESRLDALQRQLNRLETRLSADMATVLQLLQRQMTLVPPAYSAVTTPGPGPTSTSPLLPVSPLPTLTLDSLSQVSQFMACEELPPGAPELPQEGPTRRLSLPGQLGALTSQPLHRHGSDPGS
P-gp, sequence (P08183 whole entry): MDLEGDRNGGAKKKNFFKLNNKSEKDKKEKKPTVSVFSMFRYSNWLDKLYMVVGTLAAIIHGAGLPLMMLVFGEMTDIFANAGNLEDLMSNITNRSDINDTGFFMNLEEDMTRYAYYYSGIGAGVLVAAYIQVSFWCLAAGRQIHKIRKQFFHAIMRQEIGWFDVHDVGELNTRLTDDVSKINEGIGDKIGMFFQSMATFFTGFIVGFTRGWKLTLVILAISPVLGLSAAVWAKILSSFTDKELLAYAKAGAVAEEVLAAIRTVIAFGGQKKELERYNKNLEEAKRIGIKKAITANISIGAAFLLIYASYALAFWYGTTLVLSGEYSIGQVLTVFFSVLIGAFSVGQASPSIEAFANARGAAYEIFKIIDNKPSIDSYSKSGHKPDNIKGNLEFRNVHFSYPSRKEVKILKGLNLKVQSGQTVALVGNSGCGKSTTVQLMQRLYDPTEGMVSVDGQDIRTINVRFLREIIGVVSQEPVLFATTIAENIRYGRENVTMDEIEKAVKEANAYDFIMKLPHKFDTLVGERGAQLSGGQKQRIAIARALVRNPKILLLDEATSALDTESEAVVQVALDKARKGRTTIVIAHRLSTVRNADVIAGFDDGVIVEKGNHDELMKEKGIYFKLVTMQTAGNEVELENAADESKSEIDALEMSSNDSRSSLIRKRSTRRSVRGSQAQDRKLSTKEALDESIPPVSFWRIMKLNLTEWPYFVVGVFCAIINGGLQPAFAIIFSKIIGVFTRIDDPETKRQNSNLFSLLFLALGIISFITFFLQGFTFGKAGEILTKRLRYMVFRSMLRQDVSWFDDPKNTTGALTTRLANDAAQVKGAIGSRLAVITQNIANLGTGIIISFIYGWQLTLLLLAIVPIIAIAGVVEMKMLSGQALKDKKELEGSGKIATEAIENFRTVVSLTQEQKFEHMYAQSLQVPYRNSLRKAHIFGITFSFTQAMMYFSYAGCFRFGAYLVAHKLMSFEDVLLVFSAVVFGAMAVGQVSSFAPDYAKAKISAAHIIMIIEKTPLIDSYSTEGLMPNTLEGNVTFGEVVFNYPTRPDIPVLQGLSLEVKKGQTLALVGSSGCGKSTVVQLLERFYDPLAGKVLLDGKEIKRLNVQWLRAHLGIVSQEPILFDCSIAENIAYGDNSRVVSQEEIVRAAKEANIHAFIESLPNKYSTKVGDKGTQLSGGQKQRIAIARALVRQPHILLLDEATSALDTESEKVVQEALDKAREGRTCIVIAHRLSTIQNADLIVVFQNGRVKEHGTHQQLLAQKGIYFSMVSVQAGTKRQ

Molecule: NC(=O)c1cnc2c(c1)CCN2
IC50 [1]: 142 nM
remaining at 1 h [2]: 100%
remaining at 1 h [3]: 89%
half-life [4]: 87.6 min
half-life [5]: 23.4 min
Tmax [6]: 15 min
Cmax [7]: 28700 ng/mL
AUC(0-t) at 24 h [8]: 29000 ng·h/mL
clearance [9]: 64.2 mL/min/kg
IC50 [10]: 175 nM

Molecule: Cc1c(C(N)=O)c[n+]([O-])c2c1CCN2
IC50 [10]: 7050 nM

Molecule: NC(=O)c1ccc(N)nc1 [6-AMINONICOTINAMIDE]
IC50 [10]: 3620 nM

Molecule: NC(=O)c1cnc2c(c1)CCCN2
IC50 [10]: 740 nM

Molecule: C[C@@H]1Cc2cc(C(N)=O)cnc2N1
IC50 [1]: 38 nM
remaining at 1 h [2]: 97%
remaining at 1 h [3]: 93%
half-life [4]: 173 min
half-life [5]: 78.5 min
Tmax [6]: 15 min
Cmax [7]: 22500 ng/mL
AUClast ([8]; 24 h): 5115 ng·h/mL
IC50 [12]: > 100000 nM
solubility [13]: ≥ 50 µg/mL
Vd [14]: 0.877 L/kg
IC50 [15]: > 30000 nM
fraction unbound [16]: > 0.62
fraction unbound [17]: > 0.76
Activity [18]: Non-Toxic
efflux ratio [19]: 0.79
Activity [20]: Non-Toxic
IC50 [10]: 42 nM

Molecule: C[C@@H]1Cc2cc(C(N)=O)c[n+](C)c2N1
IC50 [10]: 6240 nM

Molecule: COc1ccccn1
pKa [21]: 3.28

Molecule: COc1ccc(C(N)=O)cn1
IC50 [10]: 1390 nM

Molecule: C[C@H]1Cc2cc(C(N)=O)cnc2N1
IC50 [10]: > 10000 nM

Molecule: NC(=O)c1cnc2c(c1)OCCN2
IC50 [10]: > 10000 nM

Molecule: C[C@@H]1Nc2ncc(C(N)=O)cc2[C@H]1C
IC50 [10]: > 10000 nM

Molecule: NC(=O)c1cnc2[nH]ncc2c1
IC50 [10]: > 10000 nM

Molecule: C[C@H]1Nc2ncc(C(N)=O)cc2[C@@H]1C
IC50 [1]: 114 nM
Stability ([2]; microsomes, 1 h): Unstable
Stability [3]: Unstable

B1: Nicotinamide N-methyltransferase (Homo sapiens), P40261 (protein)
chain: MESGFTSKDTYLSHFNPRDYLEKYYKFGSRHSAESQILKHLLKNLFKIFCLDGVKGDLLIDIGSGPTIYQLLSACESFKEIVVTDYSDQNLQELEKWLKKEPEAFDWSPVVTYVCDLEGNRVKGPEKEEKLRQAVKQVLKCDVTQSQPLGAVPLPPADCVLSTLCLDAACPDLPTYCRALRNLGSLLKPGGFLVIMDALKSSYYMIGEQKFSSLPLGREAVEAAVKEAGYTIEWFEVISQSYSSTMANNEGLFSLVARKLSRPL
Km [22]: 13.9 µM
Km [23]: 20.2 µM

Further lines, results first:

IC50 [10]: 639 nM
Molecule: CNc1cc(Cl)c(C(N)=O)cn1

IC50 [1]: 79 nM
remaining at 1 h [2]: 57%
remaining at 1 h [3]: 40%
half-life [4]: 172 min
half-life [5]: 27 min
Tmax [6]: 15 min
Cmax [7]: 5580 ng/mL
AUC(0-t) at 24 h [8]: 4330 ng·h/mL
clearance [9]: 179 mL/min/kg
bioavailability [11]: 90%
IC50 [10]: 92 nM
Molecule: NC(=O)c1cnc2c(c1Cl)CCN2

IC50 [1]: 23 nM
remaining at 1 h [2]: 85%
remaining at 1 h [3]: 47%
half-life [4]: 32.6 min
half-life [5]: 22.2 min
Tmax [6]: 15 min
Cmax [7]: 13500 ng/mL
AUC(0-t) at 24 h [8]: 9220 ng·h/mL
clearance [9]: 182 mL/min/kg
F ([11]; po, 50 mg/kg, 24 h): 191%
IC50 [10]: 102 nM
Molecule: Cc1c(C(N)=O)cnc2c1CCN2

IC50 [10]: > 10000 nM
Molecule: NC(=O)c1cnc2[nH]ccc2c1Cl

IC50 [10]: > 10000 nM
Molecule: CNc1ncc(C(N)=O)c(C)n1

IC50 [1]: 12 nM
remaining at 1 h [2]: 91%
Stability [3]: Unstable
Tmax [6]: 20 min
Cmax [7]: 11200 ng/mL
AUC(0-t) at 24 h [8]: 12100 ng·h/mL
clearance [9]: 90 mL/min/kg
bioavailability [11]: 129%
IC50 [10]: 43 nM
Molecule: Cc1c(C(N)=O)cnc2c1C[C@@H](C)N2

IC50 [10]: > 10000 nM
Molecule: CNc1ncc(C(N)=O)c(C)c1C

IC50 [10]: > 10000 nM
Molecule: CCOc1cc(C)c(C(N)=O)cn1

IC50 [10]: > 10000 nM
Molecule: CNc1ccncc1C(N)=O

IC50 [10]: > 10000 nM
Molecule: CNc1ncc(C(N)=O)cn1

IC50 [10]: 48 nM
Molecule: C[C@@H]1Cc2c(ncc(C(N)=O)c2Cl)N1

IC50 [10]: > 10000 nM
Molecule: CNc1cc(C)c(C(N)=S)cn1

IC50 [1]: 25 nM
remaining at 1 h [2]: 95%
remaining at 1 h [3]: 85%
half-life [4]: 107 min
half-life [5]: 66.6 min
Cmax [7]: 38900 ng/mL
AUC(0-t) at 24 h [8]: 30700 ng·h/mL
clearance [9]: 62.8 mL/min/kg
IC50 [10]: 282 nM
Molecule: CNc1cc(C)c(C(N)=O)cn1

IC50 [10]: > 10000 nM
Molecule: CNc1ncc(C(N)=O)s1

IC50 [10]: > 10000 nM
Molecule: CNc1cc(C(F)(F)F)c(C(N)=O)cn1

IC50 [10]: > 10000 nM
Molecule: CNc1cc(OC)c(C(N)=O)cn1
